Consider 22 compounds from patent publication US20260137706A1, “METHODS OF TREATING INFLAMMATORY DISEASES” (INTERLINE THERAPEUTICS, INC., priority 2023, published 2026).

The target of test [1] is T1, GST-RIPK2 fusion protein (human RIPK2, amino acids 1-310) (Homo sapiens, UniProt O43353).
T1 construct: made in house; host or cells: baculovirus infected Sf9 cells
The test is described as follows: RIPK2 binding competition assay (TR-FRET, Tracer 199 displacement). To be noted: 10 nM Tracer 199, 1 nM GST-RIPK2, read-out: RIPK2 IC50. The gist of the method: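 IC50 derived from the TR-FRET emission ratio (665/620 nm, 337 nm excitation), normalized with no-inhibitor and no-enzyme controls. Incubation 45 min at 22 °C, pH 7.5 Tris buffer, with final 10 nM tracer, 1 nM Sf9-expressed GST-RIPK2 fragment (aa 1-310) and 0.5 nM Tb-labelled anti-GST.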
Background: TR-FRET usually uses a lanthanide donor and a delayed reading to cut background.

In test [2] the target is T2, binding of His-XIAP(BIR2)-avi fusion protein to GST-RIPK2 fusion protein (RIPK2/XIAP) (Homo sapiens, UniProt O43353).
T2 construct: made in house; host or cells: baculovirus infected Sf9 cells
T2 sequence (O43353 1-310 limits assumed): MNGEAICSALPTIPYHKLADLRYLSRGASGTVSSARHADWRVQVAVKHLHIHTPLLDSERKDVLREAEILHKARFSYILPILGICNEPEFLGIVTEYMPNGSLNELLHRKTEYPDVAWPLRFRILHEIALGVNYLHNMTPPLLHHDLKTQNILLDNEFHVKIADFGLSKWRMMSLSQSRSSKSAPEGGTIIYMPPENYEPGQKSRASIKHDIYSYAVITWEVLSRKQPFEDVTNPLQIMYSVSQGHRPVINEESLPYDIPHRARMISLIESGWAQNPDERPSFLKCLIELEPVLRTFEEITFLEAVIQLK
In words: RIPK2-XIAP binding competition PPI assay (TR-FRET). To be noted: RIPK2/XIAP binding competition PPI assay; for Emax: Amax, read-out: PPI Amax bin; for IC50: read-out: PPI IC50 bin. The gist of the method: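 Compounds (in DMSO, 100-fold stock) incubated 120 min at 23 °C with 1 nM GST-RIPK2 (aa 1-310) and 25 nM His-XIAP(BIR2 aa 152-231)-avi, plus anti-His-XL665 and anti-GST-Tb, in pH 7.5 Tris buffer. Read-out: 665/520 nm emission ratio. Normalized to no-inhibitor (0%) and 50 nM GSK583 (−100%); Amax binned A–D.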

Test [3] deals with NF-κB pathway (SEAP) in THP1-Dual cells. The test is described as follows: THP-1 Dual cell SEAP assay (L18-MDP stimulated). The format is cell-based. The following applies: Homo sapiens, THP1-Dual, read-out: NF-κB THP1 IC50 bin. The method, boiled down: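 IC50 values derive from non-linear regression of % inhibition, calculated against DMSO/L18-MDP-treated wells after media-only subtraction. NF-κB SEAP activity was read at OD 620-655 nm (QUANTI-Blue, 2 h, 37 °C) from supernatants of THP1-Dual cells. Cells had been compound-treated 30 min before overnight (20-24 h) stimulation with 10 ng/mL final L18-MDP.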

T1 sequence (O43353 1-310): as the sequence (O43353 1-310 limits assumed) above

A word on the IC50: it is the concentration that gives 50% inhibition. In the case of `COc1cc2ncc(-c3ccc4nc(N)n(C)c4c3)n2cc1S(=O)(=O)C(C)(C)C` [Example 100, 6-(6-(tert-butylsulfonyl)-7-methoxyimidazo[1,2-a]pyridin-3-yl)-1-methyl-1H-benzo[d]imidazol-2-amine], the 50% inhibitory concentration (IC50) is 2.5 to 20 nM in test [1], over 20 nM in test [2] and over 1000 nM in test [3]. In addition, the Emax in test [2] was under 30%.
Turning to `COc1cc2ncc(-c3ccc4c(c3)c(C)nn4C)n2cc1S(=O)(=O)C(C)(C)C` [Example 101, 5-(6-(tert-butylsulfonyl)-7-methoxyimidazo[1,2-a]pyridin-3-yl)-1,3-dimethyl-1H-indazole], the IC50 in test [1] is 2.5 to 20 nM; in test [2], over 20 nM; in test [3] it was over 1000 nM. In addition, in test [2], the Emax was under 30%.
Consider `COc1cc2ncc(-c3ccc4c(N)nn(C)c4c3)n2cc1S(=O)(=O)C(C)(C)C` [Example 102, 6-(6-(tert-butylsulfonyl)-7-methoxyimidazo[1,2-a]pyridin-3-yl)-1-methyl-1H-indazol-3-amine], for which the IC50 in test [1] is over 20 nM; in test [2], over 20 nM; in test [3] it was over 1000 nM. For the same compound, in test [2], the Emax is under 30%.
For `COc1cc2ncc(-c3ccc4c(N)n[nH]c4c3)n2cc1S(=O)(=O)C(C)(C)C` [Example 103, 6-(6-(tert-butylsulfonyl)-7-methoxyimidazo[1,2-a]pyridin-3-yl)-1H-indazol-3-amine], the concentration for half-maximal inhibition (IC50) in test [1] was over 20 nM; in test [2] it was over 20 nM; in test [3], over 1000 nM. Further, in test [2], the Emax is under 30%.
As for `COc1cc2ncc(-c3ccc4oc(N)nc4c3)n2cc1S(=O)(=O)C(C)(C)C` [Example 104, 5-(6-(tert-butylsulfonyl)-7-methoxyimidazo[1,2-a]pyridin-3-yl)benzo[d]oxazol-2-amine], the concentration for half-maximal inhibition (IC50) in test [1] is over 20 nM; in test [2], over 20 nM; in test [3], over 1000 nM. Also, in test [2], the Emax was 30 to 55%.
Take `COc1cc2ncc(-c3ccc4sc(N)nc4c3)n2cc1S(=O)(=O)C(C)(C)C` [Example 105, 5-(6-(tert-butylsulfonyl)-7-methoxyimidazo[1,2-a]pyridin-3-yl)benzo[d]thiazol-2-amine]: the IC50 is over 20 nM in test [1], over 20 nM in test [2] and over 1000 nM in test [3]. For the same compound, the Emax in test [2] lay within 30 to 55%.
Consider `COc1cc2ncc(-c3ccc4cnn(C)c4c3)n2cc1S(=O)(=O)C(C)(C)C` [Example 106, 6-(6-(tert-butylsulfonyl)-7-methoxyimidazo[1,2-a]pyridin-3-yl)-1-methyl-1H-indazole], for which the IC50 was over 20 nM in test [1], over 20 nM in test [2] and over 1000 nM in test [3]. The Emax in test [2] is under 30%.
For `COc1cc2ncc(-c3cnn4c(C)c(C)ccc34)n2cc1S(=O)(=O)C(C)(C)C` [Example 107, 6-(tert-butylsulfonyl)-3-(6,7-dimethylpyrazolo[1,5-a]pyridin-3-yl)-7-methoxyimidazo[1,2-a]pyridine], the figures for the IC50 in test [1], in test [2] and in test [3] were over 20 nM, over 20 nM and over 1000 nM, respectively. The Emax in test [2] was 55 to 80%.
For the compound `COc1cc2ncc(-c3ccc4c(C)nn(C)c4c3)n2cc1S(=O)(=O)C(C)(C)C` [Example 108, 6-(6-(tert-butylsulfonyl)-7-methoxyimidazo[1,2-a]pyridin-3-yl)-1,3-dimethyl-1H-indazole], the half-inhibitory concentration (IC50) in test [1] is over 20 nM; in test [2], over 20 nM; in test [3], over 1000 nM. The Emax in test [2] was under 30%.
As to `COc1cc2ncc(-c3cc(F)c4nc(C)cn4c3)n2cc1S(=O)(=O)C(C)(C)C` [Example 109, 6-(tert-butylsulfonyl)-8′-fluoro-7-methoxy-2′-methyl-3,6′-biimidazo[1,2-a]pyridine], the IC50 is over 20 nM in test [1], over 20 nM in test [2] and over 1000 nM in test [3]. Also, the Emax in test [2] is under 30%.
As for `COc1cc2ncc(-c3ccc4ncoc4c3)n2cc1S(=O)(=O)C(C)(C)C` [Example 110, 6-(6-(tert-butylsulfonyl)-7-methoxyimidazo[1,2-a]pyridin-3-yl)benzo[d]oxazole], the IC50 in test [1] is over 20 nM; in test [2], over 20 nM; in test [3], over 1000 nM. Besides, in test [2], the Emax is under 30%.
For `COc1cc2ncc(-c3ccc4nn(C)cc4c3)n2cc1S(=O)(=O)C(C)(C)C` [Example 111, 5-(6-(tert-butylsulfonyl)-7-methoxyimidazo[1,2-a]pyridin-3-yl)-2-methyl-2H-indazole], the values for the IC50 in test [1], in test [2] and in test [3] were over 20 nM, over 20 nM and over 1000 nM, respectively. Also, the Emax in test [2] was under 30%.
For the compound `COc1cc2ncc(-c3cnn4ccccc34)n2cc1S(=O)(=O)C(C)(C)C` [Example 112, 6-(tert-butylsulfonyl)-7-methoxy-3-(pyrazolo[1,5-a]pyridin-3-yl)imidazo[1,2-a]pyridine], the half-maximal inhibitory concentration (IC50) is over 20 nM in test [1], over 20 nM in test [2] and over 1000 nM in test [3]. Besides, the Emax in test [2] is under 30%.
As for `COc1cc2ncc(-c3ccc4cncn4c3)n2cc1S(=O)(=O)C(C)(C)C` [Example 113, 6-(tert-butylsulfonyl)-3-(imidazo[1,5-a]pyridin-6-yl)-7-methoxyimidazo[1,2-a]pyridine], the IC50 was over 20 nM in test [1], over 20 nM in test [2] and over 1000 nM in test [3]. The Emax in test [2] is under 30%.
Regarding `COc1cc2ncc(-c3cnn4ncccc34)n2cc1S(=O)(=O)C(C)(C)C` [Example 114, 3-(6-(tert-butylsulfonyl)-7-methoxyimidazo[1,2-a]pyridin-3-yl)pyrazolo[1,5-b]pyridazine], the values for the concentration for half-maximal inhibition (IC50) in test [1], in test [2] and in test [3] were over 20 nM, over 20 nM and over 1000 nM, respectively. In test [2], the Emax was under 30%.
Turning to `COc1cc2ncc(-c3ccc4c(c3)nc(N)n4C)n2cc1S(=O)(=O)C(C)(C)C` [Example 115, 5-(6-(tert-butylsulfonyl)-7-methoxyimidazo[1,2-a]pyridin-3-yl)-1-methyl-1H-benzo[d]imidazol-2-amine], the results for the IC50 in test [1], in test [2] and in test [3] were over 20 nM, over 20 nM and over 1000 nM, respectively. Also, in test [2], the Emax was in the range of 55 to 80%.
For `COc1cn2ncc(-c3cc(F)c(N)nc3F)c2nc1N1C(=O)OCC1(C)C` [Example 116, 3-(3-(6-amino-2,5-difluoropyridin-3-yl)-6-methoxypyrazolo[1,5-a]pyrimidin-5-yl)-4,4-dimethyloxazolidin-2-one], the IC50 in test [1] is over 20 nM; in test [2], over 20 nM; in test [3], over 1000 nM. The Emax in test [2] is 55 to 80%.
Regarding `COc1cc2ncc(-c3cc(F)c(OC)c4[nH]cnc34)n2cc1S(=O)(=O)C(C)(C)C` [Example 117, 4-(6-(tert-butylsulfonyl)-7-methoxyimidazo[1,2-a]pyridin-3-yl)-6-fluoro-7-methoxy-1H-benzo[d]imidazole], the half-inhibitory concentration (IC50) in test [1] lay in the range of 2.5 to 20 nM; in test [2], 2.5 to 20 nM; in test [3] it was 250 to 1000 nM. Moreover, the Emax in test [2] is 30 to 55%.
Regarding `COc1cc2ncc(-c3cc(F)c(OC)c4[nH]c(C)nc34)n2cc1S(=O)(=O)C(C)(C)C` [Example 118, 4-(6-(tert-butylsulfonyl)-7-methoxyimidazo[1,2-a]pyridin-3-yl)-6-fluoro-7-methoxy-2-methyl-1H-benzo[d]imidazole], the IC50 in test [1] was 1 to 2.5 nM; in test [2], under 1 nM; in test [3], 50 to 250 nM. Further, the Emax in test [2] lay within 55 to 80%.
Consider `COc1cc2ncc(-c3cc(F)c(OC)c4[nH]c(CO)nc34)n2cc1S(=O)(=O)C(C)(C)C` [Example 119, (4-(6-(tert-butylsulfonyl)-7-methoxyimidazo[1,2-a]pyridin-3-yl)-6-fluoro-7-methoxy-1H-benzo[d]imidazol-2-yl)methanol], for which the half-maximal inhibitory concentration (IC50) in test [1] is under 1 nM; in test [2], under 1 nM; in test [3], under 50 nM. Further, the Emax in test [2] is 55 to 80%.
As to `COc1cc2ncc(-c3cc(F)c(OC)c4[nH]ncc34)n2cc1S(=O)(=O)C(C)(C)C` [Example 120, 4-(6-(tert-butylsulfonyl)-7-methoxyimidazo[1,2-a]pyridin-3-yl)-6-fluoro-7-methoxy-1H-indazole], the values for the IC50 in test [1], in test [2] and in test [3] were 2.5 to 20 nM, 2.5 to 20 nM and over 1000 nM, respectively. Besides, the Emax in test [2] fell in the range of 55 to 80%.
On to `COc1cc2ncc(-c3cc(F)c(OC)c4c3cnn4CCO)n2cc1S(=O)(=O)C(C)(C)C` [Example 121, 2-(4-(6-(tert-butylsulfonyl)-7-methoxyimidazo[1,2-a]pyridin-3-yl)-6-fluoro-7-methoxy-1H-indazol-1-yl)ethan-1-ol], for which the IC50 in test [1] is over 20 nM; in test [2], over 20 nM; in test [3], over 1000 nM. For the same compound, the Emax in test [2] was in the range of 55 to 80%.
